Counter-ions that a name gives are not always drawn.
| Compound | melting point |
| --- | --- |
| CC(C)(O)[C@@H]1COCc2nc3c(N)nc4ccccc4c3n21 (as salt: hydrochloride) [Example 31] | 218 to 219 °C |
| Nc1nc2ccccc2c2c1nc1n2[C@@H](Cc2ccc(O)cc2)COC1 (as salt: hydrochloride) [Example 48, 4-{[(11S)-6-Amino-10,11-dihydro-8H-[1,4]oxazino[4′,3′:1,2]imidazo[4,5-c]quinolin-11-yl]methyl}phenol] | > 240 °C (dec.) |
| Nc1nc2ccccc2c2c1nc1n2[C@H](Cc2ccccc2)COC1 (hydrate or solvate) [Example 29] | 170 to 177 °C |
| CC1COCc2nc3c(N)nc4ccc(OCc5ccccc5)cc4c3n21 (stereo in doubt) [Example 18, (11R)-2-(Benzyloxy)-11-methyl-10,11-dihydro-8H-[1,4]oxazino[4′,3′:1,2]imidazo[4,5-c]quinolin-6-amine] | 100 to 120 °C |
| CC(C)[C@H]1COCc2nc3c(N)nc4ccccc4c3n21 [Example 1, (11S)-1′-Isopropyl-10,11-dihydro-8H-[1,4]oxazino[4′,3′:1,2]imidazo[4,5-c]quinolin-6-amine] | 249 to 250 °C |
| CC(C)[C@H]1COCc2nc3c(N)nc4c(c3n21)CCCC4 [Example 2, (11S)-11-Isopropyl-2,3,4,8,10,11-hexahydro-1H-[1,4]oxazino[4′,3′:1,2]imidazo[4,5-c]quinolin-6-amine] | 158 to 160 °C |
| CC(C)[C@H]1COCc2nc3c(N)nc4cc(OCc5ccccc5)ccc4c3n21 [Example 3, (11S)-3-(Benzyloxy)-11-isopropyl-10,11-dihydro-8H-[1,4]oxazino[4′,3′:1,2]imidazo[4,5-c]quinolin-6-amine] | 227 to 229 °C |
| CC(C)[C@H]1COCc2nc3c(N)nc4cc(O)ccc4c3n21 [Example 4, (11S)-6-Amino-11-isopropyl-10,11-dihydro-8H-[1,4]oxazino[4′,3′:1,2]imidazo[4,5-c]quinolin-3-ol] | 210 to 215 °C |
| C[C@H]1COCc2nc3c(N)nc4ccccc4c3n21 [Example 5, (11S)-11-Methyl-10,11-dihydro-8H-[1,4]oxazino[4′,3′:1,2]imidazo[4,5-c]quinolin-6-amine] | 280 to 282 °C |
| C[C@H]1COCc2nc3c(N)nc4c(c3n21)CCCC4 [Example 6, (11S)-11-Methyl-2,3,4,8,10,11-hexahydro-1H-[1,4]oxazino[4′,3′:1,2]imidazo[4,5-c]quinolin-6-amine] | 209 to 211 °C |
| C[C@H]1COCc2nc3c(N)nc4cc(OCc5ccccc5)ccc4c3n21 [Example 7, (11S)-3-(Benzyloxy)-11-methyl-10,11-dihydro-8H-[1,4]oxazino[4′,3′:1,2]imidazo[4,5-c]quinolin-6-amine] | 218 to 220 °C |
| Nc1nc2ccccc2c2c1nc1n2[C@@H](c2ccccc2)COC1 [Example 9, (11S)-11-Phenyl-10,11-dihydro-8H-[1,4]oxazino[4′,3′:1,2]imidazo[4,5-c]quinolin-6-amine] | 284 to 286 °C |
| CC(C)(F)[C@H]1COCc2nc3c(N)nc4ccccc4c3n21 [Example 11, (11R)-11-(1-Fluoro-1-methylethyl)-10,11-dihydro-8H-[1,4]oxazino[4′,3′:1,2]imidazo[4,5-c]quinolin-6-amine] | 242 to 244 °C |
| CC(C)(F)[C@H]1COCc2nc3c(N)nc4c(c3n21)CCCC4 [Example 12, (11R)-11-(1-Fluoro-1-methylethyl)-2,3,4,8,10,11-hexahydro-1H-[1,4]oxazino[4′,3′:1,2]imidazo[4,5-c]quinolin-6-amine] | 195.5 to 197 °C |
| CC(C)[C@H]1COCc2nc3c(N)nc4cccnc4c3n21 [Example 14, (11S)-11-Isopropyl-10,11-dihydro-8H-[1,4]oxazino[4′,3′:1,2]imidazo[4,5-c][1,5]naphthyridin-6-amine] | 194 to 196 °C |
| CC(C)[C@H]1COCc2nc3c(N)nc4ccc(OCc5ccccc5)cc4c3n21 [Example 19, (11S)-2-(Benzyloxy)-11-isopropyl-10,11-dihydro-8H-[1,4]oxazino[4′,3′:1,2]imidazo[4,5-c]quinolin-6-amine] | 139 to 141 °C |
| CC(C)[C@H]1COCc2nc3c(N)nc4ccc(O)cc4c3n21 [Example 20, (11S)-6-Amino-11-isopropyl-10,11-dihydro-8H-[1,4]oxazino[4′,3′:1,2]imidazo[4,5-c]quinolin-2-ol] | 208 to 210 °C |
| CC1CCOCc2nc3c(N)nc4cc(Br)ccc4c3n21 (centres unmarked) [Example 22, 3-Bromo-12-methyl-11,12-dihydro-8H,10H-[1,4]oxazepino[4′,3′:1,2]imidazo[4,5-c]quinolin-6-amine] | 247 to 248 °C |
| C[C@H]1CN(S(C)(=O)=O)Cc2nc3c(N)nc4ccccc4c3n21 [Example 23, (11S)-11-Methyl-9-(methylsulfonyl)-8,9,10,11-tetrahydropyrazino[1′,2′:1,2]imidazo[4,5-c]quinolin-6-amine] | 258 to 261 °C |
| C[C@@H]1COCc2nc3c(N)nc4c(c3n21)CCCC4 [Example 27] | 209 to 211 °C |
| C[C@@H]1CN(S(C)(=O)=O)Cc2nc3c(N)nc4ccccc4c3n21 [Example 32, (11R)-11-Methyl-9-(methylsulfonyl)-8,9,10,11-tetrahydropyrazino[1′,2′:1,2]imidazo[4,5-c]quinolin-6-amine] | 258 to 261 °C |
| Nc1nc2ccccc2c2c1nc1n2[C@@H](CO)COC1 [Example 35, [(11S)-6-Amino-10,11-dihydro-8H-[1,4]oxazino[4′,3′:1,2]imidazo[4,5-c]quinolin-11-yl]methanol] | 238.6 to 239.8 °C |
| Nc1nc2ccccc2c2c1nc1n2[C@@H](CCl)COC1 [Example 36, (11R)-11-(Chloromethyl)-10,11-dihydro-8H-[1,4]oxazino[4′,3′:1,2]imidazo[4,5-c]quinolin-6-amine] | 230 to 232 °C |
| CN1CCN(C[C@H]2COCc3nc4c(N)nc5ccccc5c4n32)CC1 [Example 37, (11S)-11-[(4-Methylpiperazin-1-yl)methyl]-10,11-dihydro-8H-[1,4]oxazino[4′,3′:1,2]imidazo[4,5-c]quinolin-6-amine] | 187 to 190 °C |
| C[C@@H](OCc1ccccc1)[C@H]1COCc2nc3c(N)nc4ccccc4c3n21 [Example 38, (11R)-11-[(1R)-1-(benzyloxy)ethyl]-10,11-dihydro-8H-[1,4]oxazino[4′,3′:1,2]imidazo[4,5-c]quinolin-6-amine] | 189 to 190.8 °C |

Next, values leading:

| melting point | Compound |
| --- | --- |
| > 250 °C | C[C@H]1COCc2nc3c(N)nc4cc(O)ccc4c3n21 [Example 8, (11S)-6-Amino-11-methyl-10,11-dihydro-8H-[1,4]oxazino[4′,3′:1,2]imidazo[4,5-c]quinolin-3-ol] |
| 170 to 177 °C | Nc1nc2ccccc2c2c1nc1n2[C@@H](Cc2ccccc2)COC1 [Example 10, (11S)-11-Benzyl-10,11-dihydro-8H-[1,4]oxazino[4′,3′:1,2]imidazo[4,5-c]quinolin-6-amine] |
| 216 to 217 °C | CC(C)(O)[C@H]1COCc2nc3c(N)nc4ccccc4c3n21 [Example 13, 2-[(11R)-6-Amino-10,11-dihydro-8H-[1,4]oxazino[4′,3′:1,2]imidazo[4,5-c]quinolin-11-yl]propan-2-ol] |
| 240 to 242 °C | C[C@H]1COCc2nc3c(N)nc4cccnc4c3n21 [Example 15, (11S)-11-Methyl-10,11-dihydro-8H-[1,4]oxazino[4′,3′:1,2]imidazo[4,5-c][1,5]naphthyridin-6-amine] |
| 192 to 194 °C | CC(C)(F)[C@H]1COCc2nc3c(N)nc4cccnc4c3n21 [Example 16, (11R)-11-(1-Fluoro-1-methylethyl)-10,11-dihydro-8H-[1,4]oxazino[4′,3′:1,2]imidazo[4,5-c][1,5]naphthyridin-6-amine] |
| 219 to 221 °C | CC(C)(F)[C@H]1COCc2nc3c(N)nc4cc(O)ccc4c3n21 [Example 17, (11R)-6-Amino-11-(1-fluoro-1-methylethyl)-10,11-dihydro-8H-[1,4]oxazino[4′,3′:1,2]imidazo[4,5-c]quinolin-3-ol] |
| 262 to 264 °C | C[C@H]1COCc2nc3c(N)nc4ccc(O)cc4c3n21 [Example 21, (11S)-6-Amino-11-methyl-10,11-dihydro-8H-[1,4]oxazino[4′,3′:1,2]imidazo[4,5-c]quinolin-2-ol] |
| 248 to 249 °C | CC(C)[C@@H]1COCc2nc3c(N)nc4ccccc4c3n21 [Example 25] |
| 280 to 282 °C | C[C@@H]1COCc2nc3c(N)nc4ccccc4c3n21 [Example 26] |
| 284 to 286 °C | Nc1nc2ccccc2c2c1nc1n2[C@H](c2ccccc2)COC1 [Example 28] |
| 242 to 244 °C | CC(C)(F)[C@@H]1COCc2nc3c(N)nc4ccccc4c3n21 [Example 30] |
| 242 to 246 °C | CC(C)(O)[C@H]1COCc2nc3c(N)nc4cccnc4c3n21 [Example 33, 2-[(11R)-6-Amino-10,11-dihydro-8H-[1,4]oxazino[4′,3′:1,2]imidazo[4,5-c]-1,5-naphthyridin-11-yl]propan-2-ol] |
| 184.6 to 186.2 °C | Nc1nc2ccccc2c2c1nc1n2[C@@H](COCc2ccccc2)COC1 [Example 34, (11S)-11-[(Benzyloxy)methyl]-10,11-dihydro-8H-[1,4]oxazino[4′,3′:1,2]imidazo[4,5-c]quinolin-6-amine] |
| 215.3 to 218.6 °C | C[C@@H](O)[C@H]1COCc2nc3c(N)nc4ccccc4c3n21 [Example 39, (1R)-1-[(11R)-6-Amino-10,11-dihydro-8H-[1,4]oxazino[4′,3′:1,2]imidazo[4,5-c]quinolin-11-yl]ethanol] |
| 86.6 to 89.7 °C | C[C@H](OCc1ccccc1)[C@H]1COCc2nc3c(N)nc4ccccc4c3n21 [Example 40, (11R)-11-[(1S)-1-(benzyloxy)ethyl]-10,11-dihydro-8H-[1,4]oxazino[4′,3′:1,2]imidazo[4,5-c]quinolin-6-amine] |
| 207.6 to 208.7 °C | C[C@H](O)[C@H]1COCc2nc3c(N)nc4ccccc4c3n21 [Example 41, (1S)-1-[(11R)-6-amino-10,11-dihydro-8H-[1,4]oxazino[4′,3′:1,2]imidazo[4,5-c]quinolin-1′-yl]ethanol] |
